Measured values: US7534426B2, “Glutenase enzyme assays” (The Board of Trustees of the Leland Stanford Junior …, priority 2004, dated 2009)
Where two headings read alike, the source gives them in different places. Ends that are not written are not given here.

B1: PEP: Flavobacterium meningosepticum prolyl endopeptidase, purchased or prepared from recombinant E. coli (protein, UniProt P27028 21-705, looked up)
Prolyl endopeptidase: QNSNVLKYPETKKVSHTDTYFGTQVSDPYRWLEDDRAEDTKAWVQQEVKFTQDYLAQIPFRDQLKKQLMDIWNYEKISAPFKKGKYTYFSKNDGLQAQSVLYRKDAAGKTEVFLDPNKFSEKGTTSLASVSFNKKGTLVAYSISEGGSDWNKIIILDAETKKQLDETLLDVKFSGISWLGDEGFFYSSYDKPKEGSVLSGMTDKHKVYFHKLGTKQSQDELIIGGDKFPRRYIGAYVTDDQRYLVVSAANATNGNELYIKDLKNKTDFIPIITGFDSNVNVADTDGDTLYLFTDKDAPNKRLVKTTIQNPKAETWKDVIAETSEPLEINTGGGYFFATYMKDAIDQVKQYDKNGKLVRAIKLPGSGNASGFGGEKTEKDLYYSFTNYITPPTIFKYNVTTGNSEVYQKPKVKFNPENYVSEQVFYTSSDGTKIPMMISYKKGLKKDGKNPTILYSYGGFNISLQPAFSVVNAIWMENGGIYAVPNIRGGGEYGKKWHDAGTKMQKKNVFNDFIAAGEYLQKNGYTSKEYMALSGRSNGGLLVGATMTMRPDLAKVAFPGVGVLDMLRYNKFTAGAGWAYDYGTAEDSKEMFEYLKSYSPVHNVKAGTCYPSTMVITSDHDDRVVPAHSFKFGSELQAKQSCKNPILIRIETNAGHGAGRSTEQVVAENADLLSFALYEMGIKSLK

Legend:
[1] = In vitro digestion of gliadin peptides with gastric and pancreatic enzymes (PTCtCE); assay type: in vitro ADME; conditions: pH 7.04
Description: (§1) In vitro Digestion of Gliadin Peptides. The in vitro digestion of each peptide was performed as follows: 75 μM (final concentration) of peptide was combined with 32 μL of 0.03 M HCl, pepsin (1:100 w pepsin/w peptide) and water to give a volume of 104 μL. The reaction was carried out for 30 minutes at 37° C. and was stopped by the addition of 40 μL of 1M sodium phosphate/sodium bisphosphate (pH 7.04). Chymotrypsin (1:100 w/w), trypsin (1:100.7 w/w), elastase (1:200 w/w), and carboxypeptidase A (1:100 w/w) were then added to give a final reaction volume of 168 μL. The reaction mixture was incubated at 37° C. for the indicated time and then stopped by heating at 90° C. for 5 minutes. Alternatively, the peptide ([…]) was combined with rat intestinal brush border enzymes, where the final concentration of brush border aminopeptidase N was 100 μU/μL. The rat intestinal brush border was prepared as described (Ahnen et al., 1982) and the activity was measured by assaying continuously at 30° C. in 0.1 M Tris HCl, pH 8.0, containing 1 mM Leu-pNA [extinction coefficient at 410 nm (ε410)=8,800 M^−1/cm^−1] in 1% dimethyl sulfoxide to improve solubility. In some reactions prolyl endopeptidase was also added at a final concentration of 100 μU/μL. The reaction mixture was analyzed by reverse phase HPLC on a Vydac 218MS54 column (4.6 mm inner diameter×15 cm).
(§2) Digestive resistance of gliadin peptides and effect of PEP. The gliadin peptides P2-P8 (Table 1) were incubated with pepsin, trypsin, chymotrypsin, carboxypeptidase A, and elastase (PTCtCE) and purified rat intestinal brush border membranes (BBM) as previously detailed (Shan et al., 2002) to assess their resistance to digestion. […] Peptides P2, P3, P5 contain one or more epitopes from α-gliadin, whereas P7 and P8 carry γ-gliadin epitopes. P4 is believed to stimulate the innate immune system, and P6 has macrophage stimulating activity.

[2] = In vitro digestion of gliadin peptides with brush border membranes; assay type: in vitro ADME, rat
Description: as §1, §2

[3] = In vitro digestion with brush border membranes supplemented with PEP; assay type: in vitro ADME; conditions: rat, kidney or brush border membranes, BBM plus 100 μU/μL PEP, 37° C.
Description: as §1, with “The rat intestinal brush border was prepared as described (Ahnen et al., 1982) and the activity was measured by assaying continuously at 30° C. in 0.1 M Tris HCl, pH 8.0, containing 1 mM Leu-pNA [extinction coefficient at 410 nm (ε410)=8,800 M^−1/cm^−1] in 1% dimethyl sulfoxide to improve solubility. In some reactions prolyl endopeptidase was also added at a final concentration of 100 μU/μL.” left out
Given the stability of gliadin peptides to intestinal peptidases and initial results indicating PEP is active against α-gliadin epitopes, the efficacy of in vitro digestion with PEP was examined. To quantify the incremental effect of PEP, we incubated the gliadin peptides with purified brush border membranes, supplemented with 100 μU/μL of PEP for 1 or 4 hours at 37° C.

[4] = test system: intact rat intestine co-perfused with prolyl endopeptidase (PEP); assay type: in vivo, Sprague-Dawley rats; conditions: co-perfused with 50 μM P5; ~190 μU/μL; ca. 1:5 weight ratio PEP:P5
Source text: In vivo Rat Intestinal Perfusion. Our procedure for in vivo intestinal perfusion of peptides in rats was modified from the Smithson and Gray procedure as follows: Sprague-Dawley rats, 250-350 g were anesthetized with isoflurane, the abdomen opened, the ligament of Treitz (duodenal-jejunal junction) identified and polyethylene catheters [2.5 mm outer diameter×1 mm inner diameter] were installed with the proximal infusion catheter placed 5 cm beyond the ligament of Treitz and the collection catheter positioned 20 cm distally. Animal core temperature was monitored to be at 37° C. by rectal thermometer. Peptides for intra-intestinal perfusion were 1 mM GLGG, 0.1 mM P3, 0.1 mM P4, 0.1 mM P5, 0.1 mM P8, 0.1 mM P9, and 0.1 mM P10. […]
In a separate experiment, pepsin, trypsin and chymotrypsin digested gliadin (Sigma, St. Louis, Mo.) was perfused at 2 mg/mL along with 0.05 mM P5 and 41.7 […] PEP (˜190 μU/μL) to determine the effect of smaller, more accessible peptide fragments on P5 digestion. The perfusion effluent was collected, immediately frozen and subsequently analyzed by reverse phase HPLC on a Vydac 218MS54 column (4.6 mm inner diameter×15 cm). The rate of substrate disappearance for the peptides was calculated as previously detailed (Smithson and Gray, 1977). […]

| Molecule | metabolised at 1 h, 75 µM [2] [%] | metabolised at 4 h, 75 µM [2] [%] | metabolised at 4 h, 75 µM [1] [%] | also measured |
| --- | --- | --- | --- | --- |
| FLQPQQPFPQQPQQPYPQQPQQPFPQ [Peptide P8] | – | – | – | metabolised at 4 h, 75 µM ([1]; 75 μM peptide, 37° C., 4 hr, NR = no reaction, read-out: percentage of parent material digested, PTCtCE 4 hr): 13%; metabolised at 4 h, 75 µM ([2]; rat, kidney or brush border membranes, 75 μM peptide, aminopeptidase N 100 μU/μL, 4 hr, read-out: percentage of parent material digested, BBM 4 hr): 19%; remaining at 4 h, 75 µM ([2]; rat, kidney or brush border membranes, 4 hours, read-out: starting material remaining after BBM exposure): ~70%; metabolised at 1 h, 75 µM ([3]; 1 hr, read-out: percentage of parent material digested, BBM + PEP 1 hr): > 99%; metabolised at 4 h, 75 µM ([3]; 4 hr, read-out: percentage of parent material digested, BBM + PEP 4 hr): > 99% |
| LGQQQPFPPQQPYPQPQPF [Peptide P4, LGQQQPFPPQQPYPQPQPF] | 77 | 98 | – | – |
| LQLQPFPQPQLPYPQPQLPYPQPQLPYPQPQPF [Peptide P5] | 20 | 28 | 10 | remaining at 4 h, 75 µM ([2]; rat, kidney or brush border membranes): ~70% |
| QLQPFPQPQLPY [Peptide P2, QLQPFPQPQLPY] | 71 | 94 | 1 | – |
| VSFQQPQQQYPSSQ [Peptide P6, VSFQQPQQQYPSSQ] | 97 | 99 | 48 | – |
| B1 | – | – | – | amount of PEP required to eliminate P5 under the perfusion conditions [4]: 41.7 µg/mL |
